Source: US20220213070A1, “COMPOUNDS INHIBITING TDG ACTIVITY” (EPITAS BIOSCIENCES (SHANGHAI) CO., LTD., priority 2019, published 2022)

Tests used:
[1] = biological target: T1, TDG (Homo sapiens, UniProt Q13569); assay: Inhibition of TDG mismatch repair activity (fluorescent G·U double-stranded DNA probe T1-T2); format: biochemical; conditions: TDG 100 nM/L, preincubated with compound 37° C. 30 minutes; probe 30 nM; read-out: Inhibitory activity on TDG mismatch repair IC50
Description: 14.1 Experimental Determination of Compound's Inhibitory Rate on TDG Mismatch Repair Activity
(1) A double-stranded DNA probe T1-T2 containing uracil bases was synthesized. The nucleotide sequence of the T1 chain was: 5′-FAM-TAAUGTGAATGGAGCTGAAAT-biotin-3′; The nucleotide sequence of the T2 chain was 5′-ATTTCAGCTCCATTCACGTTA-3′. Using PCR annealing program, the T1 strand and T2 strand were complementary to form a double-stranded DNA probe T1-T2.
(2) The reaction system and steps for each well of a 96-well plate were as follows: a. TDG (100 nM/L) was mixed with different concentrations of compounds, and the mixture was incubated at 37° C. for 30 minutes. The composition of the reaction buffer was: 20 mM HEPES pH7.5, 100 mM NaCl, 0.2 mM EDTA, 2.5 mM MgCl2; b. The double-stranded DNA probe T1-T2 was added to the mixture to obtain a final volume of 100 μL, with a concentration of 30 nM, and the mixture was incubated at 25° C. for 30 min; c. 1 μL of streptavidin magnetic beads were added to the reaction solution and fully bound the biotin-labeled DNA for 1 hour; d. NaOH was added to the reaction solution to a final concentration of 200 mM, and the mixture was incubated at room temperature for 30 minutes; e. Under the action of a magnetic stand the streptavidin magnetic beads were adsorbed to the tube wall, the supernatant was transferred to a new 96-well plate, and placed in a Tecan microplate reader for fluorescence measurement. The parameter settings were: excitation wavelength 485 nm; emission wavelength 520 nm. A linear curve between fluorescence intensity and TDG concentration was constructed, R^2=0.9968, and the linear range was 0-50 nM/L;
According to the biological method described in this example, the selected compounds of the present invention were analyzed, and the results are shown in Table 1. Among them, “++” in Table 1 refers to the inhibitory activity for TDG mismatch repair with IC50≤5 μM; “+” refers to the inhibitory activity for TDG mismatch repair with IC50>5 μM.

[2] = biological target: T1, TDG; assay: TDG inhibitory activity of compounds in cells (caC-cmv-firefly luciferase reporter, HEK 293T TDG KO cells transfected with pCDNA4-TDG); format: cell-based; conditions: read-out: Inhibition rate on TDG activity
Protocol: Experimental Determination of TDG Inhibitory Activity of Compounds in Cells
The operation steps of this example are as follows:
(1) Preparation of Methylation Reporter Plasmid:
(a) SAM with a stock solution concentration of 32 mM was diluted with ultrapure water to 1600 μM;
(b) The reaction system was prepared according to the following ratio: 30 μl ultrapure water, 5 μl 10×NEBuffer 2, 5 μl diluted SAM, 1 μg pCpGL-CMV-firefly plasmid, 1 μl SssI methylase (4 U/μl); 50 μl in total, the reaction was carried out at 37° C. for 2 hours;
(c) The mixture was heated at 65° C. for 20 minutes. Then 0.2% SDS was added, the reaction was carried out at 80° C. for 10 min; and then 1 μl Proteinase K was added, the reaction was carried out at 50° C. for 1 h;
(d) The methylated plasmid was recovered with Dr. GenTLE® sedimentation aid (TAKARA).
(2) Preparation of 5fC/5caC pCpGL-CMV-Firefly Reporter Plasmid
(a) The following 10× reaction system was prepared:
(b) The reaction system was prepared according to the following ratio:
(c) The reaction was carried out at 37° C. for one hour;
(d) 24 μg Tet1 protein was added for the second time and the reaction was continued for one hour;
(e) SDS was added to a final concentration of 0.5%, 80° C., 10 minutes, then 1 μl Proteinase K was added, 55° C. overnight.
(f) The treated caC-cmv-firefly plasmid was recovered with Dr. GenTLE® sedimentation aid (TAKARA) and was quantified.
(3) Using the Luciferase Activity Assay Method to Detect the Inhibitory Rate of Small Molecule Compounds on Intracellular TDG Enzyme Activity
In a 96-well plate, the reaction system and operation flow of each well were as follows:
(a) 1 ng caC-cmv-firefly, Ing pCpGL-CMV-Relina and 150 ng pCDNA4-TDG or 150 ng pCDNA4-myc plasmid, were diluted to 75 ul Opti-MEM, mixed well and allowed to stand still for 5 minutes;
(b) 2 ul transfection reagent (Hieff Trans™ Liposomal transfection Reagent (0.5 ul/well, YEAEEN, Cat #40802)) was diluted in 100 ul Opti-MEM, mixed well and allowed to stand still for 5 minutes;
(c) 75 ul of (a) and (b) were mixed respectively, and allowed to stand still at room temperature for 20 minutes;
(d) HEK 293T TDG KO cells were digested with trypsin, the cells were collected and counted, and the suspension cell concentration was adjusted to 4×10^5/ml;
(e) 50 ul of the mixture (c) was added to each well, and at the same time 100 ul of the diluted cell suspension was added to the same well, and they were mixed well.
(f) After the cells adhering to the wall, different concentrations of small molecule compounds to be tested were added to each well.
(g) Incubation was performed in a 37° C. CO2 incubator for 72 hours. The supernatant was removed and the cells were quickly freezed at −80° C.
(h) Before detecting the luciferase activity, the cells to be tested were removed from −80° C. and allowed to stand still at room temperature for 30 minutes. Following the instructions of Dual-Glo® Luciferase Reagent (PROMEGA), the firefly fluorescence value and Renilla fluorescence value of each well were detected.
(i) The firefly fluorescence value was divided with the Renilla fluorescence value of each well; 96-well plate Z′ and experimental window was calculated by the ratio of transfected caC-cmv-firefly, pCpGL-CMV-Relina, pCDNA4-TDG plasmid mixture plus DMSO experimental group to transfected caC-cmv-firefly, pCpGL-CMV-Relina, pCDNA4-myc plasmid mixture plus DMSO experimental group, and the relative enzyme activity inhibition rate of each compound was calculated.
According to the biological method described in this example, the selected compounds of the present invention were analyzed, and the results are shown in Table 2. Among them, “+” in Table 2 refers to the compound's TDG inhibitory activity at a concentration of 10 μM≤25%; “++” refers to the compound's TDG inhibitory activity at a concentration of 10 μM>25%.

[3] = system: Lung cancer cell line Calu-1; assay: Inhibition of the growth of Calu-1 cells (CellTiter-Glo, 72 hours); format: cell-based; conditions: Homo sapiens, 72 hours of culturing, read-out: Inhibitory activity on alu-1 cell growth IC50
Protocol: 14.2 Experimental Determination of Compound's Inhibitory Rate on the Growth of Calu-1 Cells
Lung cancer cell line Calu-1 was cultured in 90% McCoy's 5A medium (BI, 01-075-1ACS)+10% fetal bovine serum (Gibco, 10270106), placed in a CO2 incubator (37° C., 5% CO2, 95% air) for culturing. Calu-1 cells were digested with trypsin (Gibco, 12604-021) and seeded in a 384-well plate at a density of 500 cells per well. The medium was 50 μL and it was cultured overnight at 37° C. in an incubator. On the next day, different concentrations of test compounds were added, and the final concentration of DMSO was 0.1%. After 72 hours of culturing, the cells were taken out for test. The cell culture medium from the 384-well plate to be tested was removed, and fresh culture medium premixed with CTG was immediately added: the ratio of the culture medium to CellTiter-Glo® 2.0 reagent (Promega, G9243) was 2:1, 30 ul was added to each well. The plate was shaken at room temperature for 20 minutes, and then a multi-function plate reader (TECAN, Infinite 200 Pro) was used according to the reagent instructions to determine the cell survival.
According to the biological method described in this example, the selected compounds of the present invention were analyzed, and the results are shown in Table 1. Among them, “++” in Table 1 refers to the inhibitory activity on the growth of calu-1 cells with IC50≤5 μM; “+” refers to the inhibitory activity on the growth of calu-1 cells with IC50>5 μM.

T1 sequence (Q13569 whole entry): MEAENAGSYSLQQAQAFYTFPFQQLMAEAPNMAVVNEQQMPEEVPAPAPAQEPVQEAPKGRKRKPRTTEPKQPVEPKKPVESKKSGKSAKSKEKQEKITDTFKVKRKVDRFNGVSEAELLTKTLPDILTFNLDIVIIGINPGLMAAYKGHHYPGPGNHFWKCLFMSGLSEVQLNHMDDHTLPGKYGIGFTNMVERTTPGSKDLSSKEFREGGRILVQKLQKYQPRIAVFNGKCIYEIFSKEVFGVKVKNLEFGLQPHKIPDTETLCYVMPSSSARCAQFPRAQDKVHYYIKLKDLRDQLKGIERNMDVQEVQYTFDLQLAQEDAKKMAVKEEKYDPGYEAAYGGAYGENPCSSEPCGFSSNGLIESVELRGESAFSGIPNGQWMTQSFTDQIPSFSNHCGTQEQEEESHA

O=C(CCN1Cc2ccccc2C1)c1ccc2c(c1)OCO2 [Compound 35, 1-(benzo[d][1,3]dioxo1-5-yl)-3-(isoindolin-2-yl)propan-1-one]
IC50 [1]: ≤ 5 µM | inhibition at 10 µM [2]: < 25% | IC50 [3]: ≤ 5 µM

O=C(CCN1Cc2ccccc2C1)c1ccc2c(c1)C(=O)CCO2 [Compound 36, 6-(3-(isoindolin-2-yl)propionyl)chroman-4-one]
IC50 [1]: ≤ 5 µM | inhibition at 10 µM [2]: < 25% | IC50 [3]: ≤ 5 µM

O=C(CCN1Cc2ccccc2C1)c1ccc2c(c1)SCCO2 [Compound 37, 1-(2,3-dihydrobenzo[b][1,4]oxathion-6-yl)-3-(isoindolin-2-yl)propan-1-one]
IC50 [1]: > 5 µM | inhibition at 10 µM [2]: < 25% | IC50 [3]: > 5 µM

COc1ccc(C(=O)CCN2Cc3ccccc3C2)cc1OC [Compound 38, 1-(3,4-dimethoxyphenyl)-3-(isoindolin-2-yl)propan-1-one]
IC50 [1]: > 5 µM | inhibition at 10 µM [2]: > 25% | IC50 [3]: > 5 µM

O=C(CCN1Cc2ccccc2C1)c1ccc(O)c(O)c1 [Compound 39, 1-(3,4-dihydroxyphenyl)-3-(isoindolin-2-yl)propan-1-one]
IC50 [1]: > 5 µM | inhibition at 10 µM [2]: < 25% | IC50 [3]: > 5 µM

O=C(CCN1Cc2ccc(-c3ccc(F)cc3)cc2C1)c1ccc2c(c1)OCCO2 [Compound 40, 1-(2,3-dihydrobenzo[b][1,4]dioxin-6-yl)-3-(5-(4-fluorophenyl)isoindolin-2-yl)propan-1-one]
IC50 [1]: > 5 µM | inhibition at 10 µM [2]: < 25% | IC50 [3]: > 5 µM

O=C(CCN1CC2C=CC(c3ccncc3)=CC2C1)c1ccc2c(c1)OCCO2 (stereo not drawn) [Compound 41, 1-(2,3-dihydrobenzo[b][1,4]dioxin-6-yl)-3-(5-(pyridin-4-yl)-1,3,3a,7αtetrahydro-2H-isoindolepyridin-2-yl)propan-1-one]
IC50 [1]: > 5 µM | inhibition at 10 µM [2]: < 25% | IC50 [3]: > 5 µM

C=CC(=O)c1ccc2c(c1)OCCO2 [Compound 42, 1-(2,3-dihydrobenzo[b][1,4]dioxin-6-yl)prop-2-en-1-one]
IC50 [1]: ≤ 5 µM | inhibition at 10 µM [2]: < 25% | IC50 [3]: ≤ 5 µM

O=C(CCN1CCC(O)(c2ccc(F)cc2)C1)c1ccc2c(c1)OCCO2 (stereo not drawn) [Compound 43, 1-(2,3-dihydrobenzo[b][1,4]dioxin-6-yl)-3-(3-(4-fluorophenyl)-3-hydroxypyrrolidine-1-yl)propan-1-one]
IC50 [1]: ≤ 5 µM | inhibition at 10 µM [2]: < 25% | IC50 [3]: ≤ 5 µM

O=C(CCN1CCC(O)(c2ccccc2)C1)c1ccc2c(c1)OCCO2 (stereo not drawn) [Compound 44, 1-(2,3-dihydrobenzo[b][1,4]dioxin-6-yl)-3-(3-hydroxy-3-phenylpyrrolidin-1-yl)propan-1-one]
IC50 [1]: > 5 µM | inhibition at 10 µM [2]: < 25% | IC50 [3]: ≤ 5 µM

O=C(CCN1CCC(c2ccc(C(F)(F)F)cc2)C1)c1ccc2c(c1)OCCO2 (stereo not drawn) [Compound 45, 1-(2,3-dihydrobenzo[b][1,4]dioxin-6-yl)-3-(3-(4-(trifluoromethyl)phenyl)pyrrolidine-1-yl)propan-1-one]
IC50 [1]: > 5 µM | inhibition at 10 µM [2]: < 25% | IC50 [3]: ≤ 5 µM

O=C(CCN1CCC(c2ccc([N+](=O)[O-])cc2)C1)c1ccc2c(c1)OCCO2 (stereo not drawn) [Compound 46, 1-(2,3-dihydrobenzo[b][1,4]dioxin-6-yl)-3-(3-(4-nitrophenyl)pyrrolidin-1-yl)propan-1-one]
IC50 [1]: ≤ 5 µM | inhibition at 10 µM [2]: < 25% | IC50 [3]: ≤ 5 µM

O=C(CCN1CCC(c2ccc(Br)cc2)C1)c1ccc2c(c1)OCCO2 (stereo not drawn) [Compound 47, 3-(3-(4-bromophenyl)pyrrolidin-1-yl)-1-(2,3-dihydrobenzo[b][1,4]dioxin-6-yl)propan-1-one]
IC50 [1]: ≤ 5 µM | inhibition at 10 µM [2]: < 25% | IC50 [3]: ≤ 5 µM

O=C(CCN1CCC(c2ccc(Cl)cc2)C1)c1ccc2c(c1)OCCO2 (stereo not drawn) [Compound 49, 3-(3-(4-chlorophenyl)pyrrolidin-1-yl)-1-(2,3-dihydrobenzo[b][1,4]dioxin-6-yl)propan-1-one]
IC50 [1]: ≤ 5 µM | inhibition at 10 µM [2]: < 25% | IC50 [3]: ≤ 5 µM

N#Cc1ccc(C2CCN(CCC(=O)c3ccc4c(c3)OCCO4)C2)cc1 (stereo not drawn) [Compound 50, 4-(1-(3-(2,3-dihydrobenzo[b][1,4]dioxin-6-yl)-3-oxopropyl)pyrrolidin-3-yl)benzonitrile]
IC50 [1]: ≤ 5 µM | inhibition at 10 µM [2]: > 25% | IC50 [3]: ≤ 5 µM

O=C(CCN1CCC(c2ccc(F)cc2O)C1)c1ccc2c(c1)OCCO2 (stereo not drawn) [Compound 51, 1-(2,3-dihydrobenzo[b][1,4]dioxin-6-yl)-3-(3-(4-fluoro-2-hydroxyphenyl)pyrrolidine-1-yl)propan-1-one]
IC50 [1]: > 5 µM | inhibition at 10 µM [2]: < 25% | IC50 [3]: > 5 µM
